Experimental data taken from patent US20210267900A1, “PROCESSING METHOD FOR DRUG SUBSTANCE PARTICLES OF NON-UNIFORM PARTICLE SIZE” (NIPPON ZOKI PHARMACEUTICAL CO., LTD., priority 2018, published 2021).
Several values for one entry are separate records, joined by “and”; a condition that tells them apart may be missing. Equal values may be shown once.

What was measured:
[1] = Particle size distribution by sieving method (ro-tap-type sieve shaker); type: physicochemical; details: drug substance before processing, % by weight
Source text: (§1) In the present invention, the particle size distribution of each of the drug substance (A) and the powder (B) can be determined by a weight-based distribution evaluation by a sieving method (measurement device: a ro-tap-type sieve shaker or the like) and a volume-based distribution evaluation by a laser-diffraction method (also referred to as “a laser diffraction scattering method”) (measurement device: Mastersizer 2000 or Mastersizer 3000 [Malvern] or the like, dispersion compression air pressure: 2 to 4 bars).

[2] = Particle size distribution by laser-diffraction method (Mastersizer 2000); type: physicochemical; details: drug substance before processing
Source text: as §1

| SMILES | particles each having a particle size of 60 μm or less [1] | particles each having a particle size of 500 μm or more [1] | particles each having a particle size of 50 μm or less [2] | particles each having a particle size of 500 μm or more [2] |
| --- | --- | --- | --- | --- |
| CC(=O)Nc1ccc(O)cc1 [Acetaminophen, acetaminophen] | 32.9% | 14% | 25.11 % by volume and 21.08 % by volume | 3.57 % by volume and 5.82 % by volume |
| CC(C)Cc1ccc(C(C)C(=O)O)cc1 (stereo not shown) [Ibuprofen, ibuprofen] | 27.2% | 11% |  |  |
| CC(C)C[C@H](CN)CC(=O)O [Pregabalin, pregabalin] | 14.5% |  |  |  |
